Measurements published in PubChem BioAssay AID1996.
Values after ≈ are worked out from the molar mass of the structure shown.

details: buffer; pH 7.4; 200.0 µM

Structure (SMILES) | solubility kinetic [µg/mL]
Cc1ccccc1NC(=O)CC1SC(=Nc2ccc(O)cc2)NC1=O (centres undefined) | 2 (≈ 5.63 µM)
N#C/C(=C(/O)CO/N=C/c1ccccc1Cl)c1nc2ccccc2[nH]1 | < 0.2
COc1ccccc1N(CC1CO1)S(=O)(=O)c1ccc(C)cc1 (centres undefined) | 47.5 (≈ 142 µM)
CC1(C(=O)O)CCC(C(=O)Nc2ccc(F)cc2)C1(C)C (centres undefined) | > 44
Cc1ccc(C(=O)Nc2ccc3c(c2)OCCO3)c(C)c1 | > 42.5
C=CCn1c(SCC(=O)Nc2cccc(S(N)(=O)=O)c2)nc2sc(C)c(C)c2c1=O | 3 (≈ 6.46 µM)
O=C(CSc1ccccc1)NC1=NCCS1 | 32.4 (≈ 128 µM)
COc1ccc(C(=O)NC(=S)N2CC(C)OC(C)C2)cc1OC (centres undefined) | > 50.8
O=C(COC(=O)c1ccc([N+](=O)[O-])o1)NC1CCCc2ccccc21 (centres undefined) | 26.3 (≈ 76.4 µM)
O=C(c1ccccc1)c1ccccc1N=Cc1c(O)[nH]c(=O)[nH]c1=O | 3.8 (≈ 11.3 µM)
O=c1cc(O)c2ccccc2n1Cc1ccccc1 | 31.9 (≈ 127 µM)
CCOC(=O)C(O)C1CCc2c([nH]c3ccc(C)cc23)C1=O (centres undefined) | 22.6 (≈ 75 µM)
CCC(C(=O)Nc1ccon1)c1ccccc1 (centres undefined) | > 34.5
Cc1cc(C)c(C)c(S(=O)(=O)NCCCn2ccnc2)c1C | 39.8 (≈ 124 µM)
COc1ccc(Cl)cc1Nc1nc(N)c2ccccc2n1.Cl | 5.3
CC1CCN(C(=O)CCNC(=O)c2ccccc2Cl)CC1 | 41.1 (≈ 133 µM)
Cc1cccc(N2CCN(C(=O)c3cc4cc(F)ccc4[nH]3)CC2)c1C | 0.6 (≈ 1.71 µM)
CCOc1ccc(N2CC(C(=O)N3CCc4ccccc43)CC2=O)cc1 (centres undefined) | 4.5 (≈ 12.8 µM)
CCOC(=O)C1(Cc2ccccc2C)CCCN(C(=O)COC)C1 (centres undefined) | 35.6 (≈ 107 µM)
COCCCNC(=O)Cc1ccc(-n2c(C)nc3cccnc32)cc1 | > 50.8
Cc1ccc(N2CC(C(=O)NCCN3CCOCC3)CC2=O)cc1 (centres undefined) | > 49.7
O=C(O)CCC(=O)Nc1cccc(-c2nc3ccccc3o2)c1 | > 46.5
CCC(CC)C(=O)c1c[nH]c(C(=O)OC)c1 | > 33.5
Cc1ccc(NC(=O)C2CCN(S(C)(=O)=O)CC2)cc1Cl | 16.4 (≈ 49.6 µM)

Structure (SMILES) | solubility kinetic [µg/mL]
Cc1csc(NC(=O)c2ccc(S(=O)(=O)N3CCN(C)CC3)cc2)n1 | 54.5 (≈ 143 µM)
O=C(N[C@H]1CC1c1ccccc1)c1ccc([N+](=O)[O-])cc1 (some centres undefined) | 1.6 (≈ 5.67 µM)
O=C(O)c1cc2nccc(-c3ccco3)n2n1 | > 34.4
CCCC(=O)C1=C(O)C(C(=O)OC)C(C)(C)CC1=NCCc1ccccc1 (centres undefined) | 53.4 (≈ 144 µM)
O=C(CCc1nc2ccccc2s1)NCc1ccccc1F | > 47.2
O=C(Nc1ccc(-c2ccccc2)cc1)c1ccccc1 | 1 (≈ 3.66 µM)
Cc1ccc(-n2c(SCC(=O)N(C)C3CCS(=O)(=O)C3)nc3ccccc3c2=O)c(C)c1 (centres undefined) | > 70.7
Cc1cc(C)n(C)c(=O)c1C#N | > 24.3
O=C(Nc1ccccc1)OCC1CCCO1 (centres undefined) | > 33.2
COc1ccc(CC(=O)N2CCc3ccccc3C2)cc1 | 39.6 (≈ 141 µM)
CCC1(CC)Cc2ccccc2-c2[nH]c(=S)[nH]c(=O)c21 | 27.3 (≈ 95.3 µM)
COc1ccccc1NC(=O)C1CCN(C(=O)c2ccco2)CC1 | > 49.3
Cc1cc(/C=C2\NC(=S)NC2=O)c(C)n1-c1cccnc1 | 4.8 (≈ 16.1 µM)
CC(=O)Nc1ccc(C(=S)NCCCO)cc1 | > 37.8
O=C(COc1ccccc1F)Nc1ccc2c(c1)OCCO2 | 14.1 (≈ 46.5 µM)
Cc1ccc(C)c(NC(=O)CN(C)C(C)C(=O)N2CCCC2)c1 (centres undefined) | 42.1 (≈ 133 µM)
COc1ccc(C(=O)/C=C2/C(=O)Nc3ccccc32)c(OC)c1 | 12.7 (≈ 41.1 µM)
Cc1cnc(NC(=O)Nc2ccccc2)c(C)n1 | 32 (≈ 132 µM)
CCC(=O)N1c2ccc(S(=O)(=O)N3CCCC3)cc2CC1C (centres undefined) | 33.5 (≈ 104 µM)
COc1ccc(CNC(=O)C(=O)NCc2cccnc2)cc1 | 20.9 (≈ 69.8 µM)
Cc1onc(-c2ccccc2)c1CNC(=O)C1COc2ccccc2O1 (centres undefined) | 46.2 (≈ 132 µM)
CCOC(=O)N1CCN(C(=O)CCc2ccc(S(=O)(=O)NCC(C)C)cc2)CC1 | 59.6 (≈ 140 µM)
Cc1cccn2c(=O)c(C=O)c(Nc3ccccc3)nc12 | < 0.2
c1ccc(N2CCN(Cc3nc4ccccc4[nH]3)CC2)nc1 | 41.3 (≈ 141 µM)

Structure (SMILES) | solubility kinetic [µg/mL]
Cc1ccc(S(=O)(=O)NCCC(=O)NC2CCCCC2)cc1 | > 48.7
O=C(COc1ncnc2ccccc12)Nc1ccccc1[N+](=O)[O-] | 14.6 (≈ 45 µM)
CC(C)CCN1CCN(Cc2cc3ccccc3[nH]2)CC1CCO (centres undefined) | 39.3 (≈ 119 µM)
Cc1cc(C)nc(NC2=NCCN2C(=S)Nc2c(C)cccc2C)n1 | 17.7 (≈ 49.9 µM)
O=C(NCCCN1CCCC1)Nc1ccccc1[N+](=O)[O-] | > 43.9
CC(C(=O)O)n1c2ccccc2c2cnn(C)c(=O)c21 (centres undefined) | > 40.7
COc1ccc(NC(=O)/C=C/c2cccc(C(F)(F)F)c2)cn1 | 5.3 (≈ 16.4 µM)
CCCS(=O)(=O)N1CCCC(C(=O)NCCc2ccccc2)C1 (centres undefined) | 48.5 (≈ 143 µM)
CCOC(=O)Cc1c(C)nc(N)[nH]c1=O | 31.1 (≈ 147 µM)
CCCCOC(=O)c1ccc(NC(=O)C(=O)NCCN(C)C)cc1 | 45.7 (≈ 136 µM)
CS(=O)(=O)c1ccc2nc(NC(=O)CN3CCOCC3)sc2c1 | 40.6 (≈ 114 µM)
O=C(Cc1csc(-c2ccccc2)n1)NCC(=O)Nc1ccc(F)c(F)c1F | 9 (≈ 22.2 µM)
CC(=O)N1CCC(C(=O)NCCOc2ccc(C)cc2)CC1 | > 45.7
COc1ccccc1NC(=O)c1ccccc1Oc1ccccc1 | < 0.7
COc1cc(CNCc2ccccc2)cc(Cl)c1OC.Cl | 48.2
CCOP(=O)(OCC)C(O)c1cccnc1 (centres undefined) | > 36.8
O=C1C(=O)N(C/C=C/c2ccccc2)c2ccccc21 | 2.3 (≈ 8.74 µM)
CCOc1nc(Nc2ccc(OC)cc2)nc(N2CCOCC2)n1 | 4.8 (≈ 14.5 µM)
Cc1ccc(OCC(=O)NC2CC(C)(C)NC(C)(C)C2)c(C)c1 | > 47.8
O=C(O)c1cccc(S(=O)(=O)Nc2ccc(-c3ccccc3)cc2)c1 | > 53
CCCS(=O)(=O)Nc1c(C(=O)O)[nH]c2ccc(OC)cc12 | 46.3 (≈ 148 µM)
S=C(NCc1cccnc1)Nc1ccc2c(c1)OCO2 | > 43.1
Oc1ccc(-c2csc(Nc3ccccn3)n2)cc1O | 11.3 (≈ 39.6 µM)
COc1cccc(C(NC(C)=O)c2ccc3cccnc3c2O)c1 (centres undefined) | 44.4 (≈ 138 µM)

Structure (SMILES) | solubility kinetic [µg/mL]
CSc1nccc(Oc2ccccc2Cl)n1 | 6.8 (≈ 26.9 µM)
Cc1nnc(SCC(=O)NC(=O)NCc2ccco2)s1 | > 46.9
CCN(C#N)c1nc(NC(C)C)nc(NC(C)(C)C)n1 | 37 (≈ 133 µM)
O.S=c1nc[nH]c2nc[nH]c12 | > 25.5
C/C(N)=C(/C#N)C(=O)COC(=O)c1cccc(O)c1 | > 39
Cl.c1ccc2c(CC3=NCCN3)cccc2c1 | > 37
COc1cccc(CN(C)C(=O)c2cc(S(=O)(=O)N3CCCC3)ccc2C)c1OC | > 64.9
Cc1ccc(N=C2C(=O)Nc3ccccc32)cc1C | 24 (≈ 95.9 µM)
CC(C)CCNC(=O)c1cc2c(s1)-c1ccccc1S(=O)(=O)C2 | 2.1 (≈ 6.01 µM)
S=C(NCCCc1ccccc1)Nc1ccccc1 | 31.9 (≈ 118 µM)
COC(=O)C1=C(C(=O)OC)SC(=C2C(=S)C(C)(C)N(C(=O)C(C)C)c3ccccc32)S1 | < 1
CC1CCC2(CC1)NC(=O)N(CC(=O)N1CC(C)CC(C)C1)C2=O (centres undefined) | 15.8 (≈ 47.1 µM)
CCOc1ccccc1NC(=O)NC1CCCc2ccccc21 (centres undefined) | 0.5 (≈ 1.61 µM)
COc1ccc(S(=O)(=O)NC(C)C(=O)N2CCCCCC2)cc1 (centres undefined) | > 51.1
COCC(C)n1c(SCC(=O)N2CCOCC2)nc2ccccc2c1=O (centres undefined) | > 56.6
CN(C)CC(C)(C)CNS(=O)(=O)c1ccc(Cl)cc1.Cl | 49.4
CCCCn1c(=O)c(C(=O)Nc2ccc(C)cn2)c(O)c2ccccc21 | < 0.3
COc1cc(CNC(C)C23CC4CC(CC(C4)C2)C3)cc(OC)c1OC.Cl (centres undefined) | > 59.4
O=C(NC(=S)NCCCN1CCOCC1)c1ccco1 | > 44.6
COc1ccc(NC(=O)CCCC(=O)O)cc1Cl | > 40.8
Nc1ccc(C(=O)NC23CC4CC(CC(C4)C2)C3)cc1 | 37.3 (≈ 138 µM)
COCCNC(=O)/C(C#N)=C/c1ccc(OCc2ccc(F)cc2)cc1 | 3.4 (≈ 9.59 µM)
CC(CCc1ccccc1)NC(=O)COC(=O)c1cccs1 (centres undefined) | > 47.6
CC1CCCC(NC(=O)COC(=O)c2cc(=O)[nH]c3ccccc23)C1C (centres undefined) | 4.6 (≈ 12.9 µM)

Structure (SMILES) | solubility kinetic [µg/mL]
O=C(CCc1ccccc1)NCC1OCCc2ccccc21 (centres undefined) | > 44.3
C=CCn1cnnc1SCC(=O)N(C1CCCCC1)C1CCS(=O)(=O)C1 (centres undefined) | > 59.8
COc1cccc(OC)c1C(=O)Nc1ccc2nc(C)c(C)nc2c1 | 4.5 (≈ 13.3 µM)
O=S(=O)(c1cc(Cl)ccc1Cl)N1CCc2ccccc21 | < 0.7
Cc1ccnc(NC(=O)c2ccc3c(c2)NC(=O)C(C)S3)c1 (centres undefined) | 6.6 (≈ 21.1 µM)
COc1ccc(CCNC(=O)c2ccc(Br)cc2)cc1 | 1.3 (≈ 3.89 µM)
Cc1ccc(CNS(=O)(=O)c2cccc3nsnc23)cc1 | > 47.9
COc1ccc(NC(=O)COC(=O)C(NC(=O)c2ccc(C)cc2)C(C)C)cn1 (centres undefined) | 57.9 (≈ 145 µM)
O=C(NCCc1ccc(F)cc1)c1ccncc1 | > 36.6
O=[N+]([O-])c1ccccc1OCCN1CCCC1 | 25.5 (≈ 108 µM)
CCN1CCc2c(OCC(=O)Nc3ccc4c(c3)OCCO4)cccc2C1=O | 29.8 (≈ 77.9 µM)
O=C(NCc1cnn(-c2ccccc2)c1)C1CCC(=O)N(C2CC2)C1 (centres undefined) | > 50.8
NC(=O)c1cccnc1Oc1ccccc1 | 28.8 (≈ 134 µM)
O=c1[nH]c(=S)n(-c2ccc(F)cc2)c(O)c1/C=N/N1CCOCC1 | > 52.6
Cn1c(=O)c2c(nc(Cl)n2CCOc2ccccc2)n(C)c1=O | 6.7 (≈ 20 µM)
COc1ccccc1CCC(=O)Nc1ncc(C)s1 | 2.5 (≈ 9.05 µM)
COc1ccc(-c2ccc3c(N)c(C(=O)NC(C)C)sc3n2)cc1OC | 30.1 (≈ 81 µM)
CCOC(OCC)c1ccc(/C=C\c2nccc(N)n2)cc1 | 13.7 (≈ 45.8 µM)
CCC(=O)c1ccc(OCC(=O)Nc2ccccc2N2CCCCC2)cc1 | < 0.4
Cc1cc(OCC(=O)NC2CC2)c2c(C)cc(=O)oc2c1 | > 43.1
COc1cccc(CNC(=O)c2cccnc2Sc2ccccc2)c1 | 5.6 (≈ 16 µM)
O=C(O)c1ccc2ncsc2c1 | > 26.9
Nc1cc(Cl)ccc1C(=O)OCC(=O)N1CCCCCC1 | 5.4 (≈ 17.4 µM)
